Experimental data from publication PMC7432833, “Unusual Occurrence of Two Bona-Fide CCA-Adding Enzymes in Dictyostelium discoideum” (International Journal of Molecular Sciences, 2020).

Key:
[1] = molecular target: T1, CCA1 (Dictyostelium discoideum, UniProt Q54BQ2); assay: nucleotide binding assay (supplement)
T1 construct: gene DDB_G0293504; full-length codon-optimized ORF, C-terminal His tag, pET28b(+), E. coli BL21(DE3) delta-cca
T1 sequence (Q54BQ2 1-558): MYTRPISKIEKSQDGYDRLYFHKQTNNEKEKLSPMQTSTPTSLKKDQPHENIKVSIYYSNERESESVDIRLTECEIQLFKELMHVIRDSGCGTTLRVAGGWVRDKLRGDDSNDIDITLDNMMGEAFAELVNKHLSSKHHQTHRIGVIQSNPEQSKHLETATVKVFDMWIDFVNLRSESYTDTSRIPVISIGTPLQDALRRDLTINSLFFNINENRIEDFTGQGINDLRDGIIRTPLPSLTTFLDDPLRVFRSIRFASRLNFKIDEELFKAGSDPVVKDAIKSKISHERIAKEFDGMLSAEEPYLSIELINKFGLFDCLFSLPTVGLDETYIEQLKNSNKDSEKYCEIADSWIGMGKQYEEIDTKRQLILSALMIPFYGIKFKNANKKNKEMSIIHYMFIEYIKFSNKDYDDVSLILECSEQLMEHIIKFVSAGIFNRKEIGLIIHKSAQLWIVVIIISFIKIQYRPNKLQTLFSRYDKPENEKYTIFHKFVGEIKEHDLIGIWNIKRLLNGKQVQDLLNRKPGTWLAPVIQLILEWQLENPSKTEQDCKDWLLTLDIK

[2] = molecular target: T2, CCA2 (Dictyostelium discoideum, UniProt Q55BE1); assay: nucleotide binding assay (supplement)
T2 construct: gene DDB_G0271378; full-length codon-optimized ORF, C-terminal His tag, pET28b(+), E. coli BL21(DE3) delta-cca; Q/N-rich
T2 sequence (Q55BE1 1-542): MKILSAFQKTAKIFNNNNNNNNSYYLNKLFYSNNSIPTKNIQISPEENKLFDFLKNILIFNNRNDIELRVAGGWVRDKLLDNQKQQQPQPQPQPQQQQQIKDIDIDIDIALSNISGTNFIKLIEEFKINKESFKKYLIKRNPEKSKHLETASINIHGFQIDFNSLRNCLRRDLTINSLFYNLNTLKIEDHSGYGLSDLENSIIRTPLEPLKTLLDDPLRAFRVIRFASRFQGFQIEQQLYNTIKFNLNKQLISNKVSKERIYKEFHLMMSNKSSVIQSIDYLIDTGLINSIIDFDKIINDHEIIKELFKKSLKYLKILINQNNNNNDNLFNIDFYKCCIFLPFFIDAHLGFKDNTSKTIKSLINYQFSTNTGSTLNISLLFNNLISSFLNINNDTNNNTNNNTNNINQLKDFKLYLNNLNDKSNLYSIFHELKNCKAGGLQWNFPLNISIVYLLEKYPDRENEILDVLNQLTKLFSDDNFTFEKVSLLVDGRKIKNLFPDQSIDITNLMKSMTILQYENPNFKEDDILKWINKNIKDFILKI

[3] = system: T3, CCA2 (tRNA nucleotidyltransferase 2, Q/N-rich) (Dictyostelium discoideum); assay: EMSA; conditions: 6 mM Mg2+, EMSA: HEPES/KOH pH 7.6 (concentration not stated), 30 mM KCl, 6 mM MgCl2, 20 C, 10 min, 0.5 pmol tRNA, 0-5 uM enzyme, 5% native PAA gel, n=3
T3 sequence: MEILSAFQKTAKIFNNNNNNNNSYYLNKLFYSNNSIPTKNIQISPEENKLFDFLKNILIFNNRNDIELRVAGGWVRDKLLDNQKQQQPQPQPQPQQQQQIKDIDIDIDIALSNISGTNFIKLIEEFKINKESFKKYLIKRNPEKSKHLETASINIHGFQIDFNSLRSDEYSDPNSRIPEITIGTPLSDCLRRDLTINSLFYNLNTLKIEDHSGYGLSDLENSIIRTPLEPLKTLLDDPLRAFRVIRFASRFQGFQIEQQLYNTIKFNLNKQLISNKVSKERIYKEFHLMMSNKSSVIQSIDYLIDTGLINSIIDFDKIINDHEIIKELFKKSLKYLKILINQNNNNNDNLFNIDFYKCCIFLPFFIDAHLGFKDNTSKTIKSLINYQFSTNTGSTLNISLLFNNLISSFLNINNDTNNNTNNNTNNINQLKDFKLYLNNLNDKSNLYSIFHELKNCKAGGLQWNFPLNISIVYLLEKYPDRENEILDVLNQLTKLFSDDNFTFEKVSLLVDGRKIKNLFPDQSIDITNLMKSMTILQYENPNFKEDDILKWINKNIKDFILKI

Compound	nucleotide binding assay (supplement) [1]	nucleotide binding assay (supplement) [2]	Kd ([3]; tRNA pool, native tRNA modifications (isolated from cells)) [µM]	Kd [3] [µM]
Nc1ncnc2c1ncn2[C@@H]1O[C@H](COP(=O)(O)OP(=O)(O)OP(=O)(O)O)[C@@H](O)[C@H]1O [ATP]	when incubated with CTP or ATP alone, both enzymes showed an almost identical binding behavior	when incubated with CTP or ATP alone, both enzymes showed an almost identical binding behavior		
Nc1ccn([C@@H]2O[C@H](COP(=O)(O)OP(=O)(O)OP(=O)(O)O)[C@@H](O)[C@H]2O)c(=O)n1 [CTP]	when incubated with CTP or ATP alone, both enzymes showed an almost identical binding behavior	when incubated with CTP or ATP alone, both enzymes showed an almost identical binding behavior		
total in vivo tRNA-CC pool			1.7	
tRNAPhe-CC in vitro transcript (yeast per Fig. 5 legend)				2.3
